The record followed here is patent US20180265867A1, “NUCLEIC ACID MOLECULES WITH ENHANCED ACTIVITY” (priority 2015, published 2018).

d = 2'-deoxy (DNA); r = 2'-OH (RNA)

One data set concerns GAPDH. Kind of data set: GAPDH gene knockdown in MG63 cells by RT-PCR. It is filed as cell-based, human. The settings on record: MG63 cells; for GAPDH gene knockdown: 50 nM, 24 h. The protocol:
At 70% confluency, a day prior to transfection, the cells were seeded at a density of 35 000 cells in a 24-well cell culture plate to achieve 60-80% confluence at the day of transfection. Cell penetrating siRNAs (cpRNAs) of different lengths were transfected at 50 nM concentrations with Magnet Assisted Transfection (MATra-si) reagent for siRNAs (IBA GmbH, Göttingen, Germany) according to the manufacturers' protocols. Briefly, the siRNA was mixed with MATra-si reagent composed of supermagnetic ironoxide nanoparticles and incubated for 20 min. A complex was formed which was added to the cells to be transfected. A strong magnetic force was applied beneath the cells for 15 min. This forced the complex to be drawn into the cells by the magnetic field, and as a result the siRNA was delivered directly into the cytosol. For carrier free transfection experiments, cpRNAs were simply added to cells lines MG63, HOB, HCT116, fibroblasts and keratinocytes at 50 nM concentrations. Cells were also transfected with negative control siRNA (scrambled sequence) and cells left untreated were taken as controls. Each transfection was performed in triplicate. Post transfection, cells were incubated for 24 hours.
For the experiments involving lysosomotropic agent chloroquine (CQ), CQ was first neutralized to pH 7.4 using 1 M NaOH prior to use. MG63 cells were transfected with dT2, dT5, dT8, (dT5)2, as(dT5), and bl(dT5) siRNA in presence or absence of 100 μM CQ or using MATra-si and incubated for 24 h. Similar experiments were performed for other cpRNAs namely, dA5, dT5, dG5, (dT5)2, rA5 and dC5. For the control experiment, cells were either left untreated or transfected with negative control siRNA (scrambled sequence). Each transfection experiment was performed in triplicate.
After performing transfection experiments for 24 h, 48 h and 72 h respectively, total RNA was isolated from cells by adding 500 μl of lysis buffer (Qiagen, Germany), followed by homogenization of cell lysates using QIAshredder (Qiagen, Germany). RNA was extracted from cell lysates by RNeasy Mini Kit (Qiagen, Germany). All RNA samples were treated with DNase using TURBO-DNAfree (Ambion, USA). Agilent 2100 BioAnalyzer (Agilent Technologies, Palo Alto, Calif.) was used to confirm high quality of all RNA samples, which reports an RNA Integrity Number (RIN) that takes into account the entire electrophoretic RNA trace produced in the analysis. A RIN of greater than or equal to seven indicates the RNA is suitable for high stringency applications.
cDNA synthesis was performed in triplicate using total RNA reverse transcribed using High Capacity cDNA reverse transcription kit (Applied Biosystems, USA), with non-template control added to ensure a lack of signal in assay background. Reactions were incubated on a 96-well Applied Biosystems 9800 Fast Thermal Cycler PCR System at 37° C. for 60 min followed by 95° C. for 5 min. The real-time PCR reactions were carried out with 10 μl of 2×TaqMan® Universal PCR Master Mix, no AmpErase® UNG (Applied Biosystems, USA), 9 μl diluted cDNA, and 1 μl of TaqMan gene specific assay mix in a 20 μl final reaction volume. Reference gene beta-actin (ACTB) (Applied Biosystems, USA) was selected as control for normalization of TaqMan data. The assay included a no-template control, a standard curve of five serial dilution points (in steps of 3-fold) of cDNA mixture. Probes specific for IFN-α (Hs01022060_m1), IFN-β (Hs01077958_s1), IFN-γ (Hs00985251_m1), ACTB(Hs01060665_g1) and GAPDH (Hs02758991_g1) were purchased from Applied Biosystems. The amplification was carried out using the 7500 Fast Real-Time PCR System (Applied Biosystems, USA) using a 40-cycle program. The 7500 software automatically calculates raw Ct (cycle threshold) values. Data from samples with a Ct value equal to or below 35 were further analyzed. […]

Data set [1] is described as follows: Thermal denaturation (Tm) of siRNA duplexes. It is filed as physicochemical. The settings on record: for Tm: 7.5 mM phosphate buffer pH 7.0 containing 140 mM KCl, 1 μM strands, 40-95° C.; for Δ Tm: Tm relative to canonical siRNA (dT2); for drop in Tm: as compared to canonical siRNA. As to the method:
Thermal denaturation studies of siRNA was carried out in phosphate buffer, pH 7.0, containing 140 mM KCl. UV absorbance was monitored at 260 nm in the temperature range from 40 to 95° C. using a Lambda 35 UV-Vis spectrophotometer equipped with a Peltier temperature programmer with a heating rate of 0.5° C./min. Samples (1 μM RNA) were denatured at 90° C. for 3 min followed by slow cooling to 27° C. prior to the measurements. Tm values were obtained from the maxima of the first derivatives of the melting curves. All Tm values given are the averages of three independent sets of experiments (±0.3° C. error range).

In the next data set the test system is Ctnnb1 (β-Catenin). Kind of data set: Ctnnb1 expression in MC3T3-E1 cells by quantitative RT-PCR. It is filed as cell-based, mouse. The protocol:
MC3T3-E1 cells were cultured in α-MEM (Sigma-Aldrich, Haverhill, UK) medium containing 10% FBS, 1% L-Glutamine, and 1% antibiotics (PeSt) at 37° C. with 5% CO2. One day prior to the miRNA treatment, 35,000 cells were plated per each well of a 24-well plate. On the experiment day, cells were replaced with 2% heat inactivated-FBS containing α-MEM medium with 1% L-Glutamine, and 1% antibiotics (PeSt). miR-34a-CP (final concentration: 50 nM) was given to the each well. Mirvana scrambled miRNA mimic was used as a negative control.
After 24 hours of transfection, and incubation, RNA extraction was performed by using miRCURY RNA Isolation Kit—Cell and Plant (#300100) and protocol from Exiqon, Vedbæk, Denmark. RNA samples were treated with DNase for 30 minutes at 37 degrees, thereafter inactivated with a DNase inactivation solution (TUTRBO DNase AM2238 thermofisher). Thereafter, RNA concentrations were measured using NanoDrop ND-1000 from NanoDrop Technologies, Wilmington, Del.
The cDNA was made from the total RNA using High Capacity cDNA reverse transcription kit (Applied Biosystems, USA). Reactions were performed on a 96-well Bio-Rad Thermal Cycler PCR System at 37° C. for 60 minutes, and at 95° C. for 5 min respectively. Real-time PCR reactions were performed as follows: 10 μl of 2×TaqMan® Universal PCR Master Mix, no AmpErase® UNG (Applied Biosystems, USA), 9 μl 1:5 diluted cDNA, and 1 μl of TaqMan gene specific assay mix. Final volume of the reaction mix was 20 uL. Internal control gene beta-actin (ACTB) (Applied Biosystems, USA) was selected as control for normalization of TaqMan data. The qRT-PCR reaction comprised a non-template control of cDNA in order to rule out any non-specific reading. Taqman probes for Ctnnb1, Sox9, Actb, were obtained from Applied Biosystems. The qRT-PCR amplification was carried out using the Bio-Rad qRT-PCR Thermocycler.
In order to achieve the transfection reagent free delivery of therapeutically potential microRNAs, we tested miR-34a and compared with miR-34a-CP. Since microRNAs unlike siRNAs have multiple targets in the cell, and there is a necessity to reduce the off-target and undesirable effects if any, we have also designed siRNA model siR-34a-CP as stated above. We have used mouse preosteoblast cell line MC3T3-E1 obtained from calvarial bone for the in-vitro functional validation of cell-penetrating molecules. On the day before transfection experiment, 35000 MC3T3-E1 cells were cultured per each well of the 24-well culture plate in alpha-Minimum Essential Medium with 10% heat inactivated FBS, 1% L-Glutamine, 1% antibiotics (Pe/St). […] 5% CO2. Thereafter, RNA extraction, cDNA preparation, and quantitative real-time PCR was performed by using TaqMan procedure.

In the case of “dA5: GAPDH siRNA, sense SEQ ID NO: 6 with dA5 3′-overhang, antisense SEQ ID NO: 2 with dT2 (sense CCGAGCCACAUCGCUCAGAAAAAA; antisense UCUGAGCGAUGUGGCUCGGTT; sense: sugars from the 5' end r19 d5, backbone not given here; antisense: sugars from the 5' end r19 d2, backbone not given here)”, in the data set on GAPDH (FIG. 2B), the “RNAi activity among different 5-nt candidates” value was “highest RNAi activity”. In the data set with GAPDH (carrier-free transfection), the GAPDH gene knockdown was determined as 80%. In data set [1], the midpoint of thermal melting (Tm) is 79.6 °C, the “Δ Tm” value is −1.6 °C and the “drop in Tm” value is ~1.5 °C.
In the data set on GAPDH (carrier-free transfection), “rA5: GAPDH siRNA, sense SEQ ID NO: 9 with ribo A5 3′-overhang, antisense SEQ ID NO: 10 with U2 (sense CCGAGCCACAUCGCUCAGAAAAAA; antisense UCUGAGCGAUGUGGCUCGGUU; RNA, backbone not given here)” came in with a GAPDH gene knockdown of 60%. For the same substance, in data set [1], the melting temperature (Tm) came out at 79.0 °C and the “Δ Tm” value was −2.2 °C.
As to “(dT5)2: Symmetrical GAPDH siRNA, sense SEQ ID NO: 3 and antisense SEQ ID NO: 5, dT5 overhang at both 3′-ends (sense CCGAGCCACAUCGCUCAGATTTTT; antisense UCUGAGCGAUGUGGCUCGGTTTTT; sugars from the 5' end r19 d5, backbone not given here)”, in the data set on GAPDH (MATra-si transfection), the “enhancement in activity compared to canonical siRNA” value is given as 10% and the GAPDH gene knockdown was found to be 70%. The same substance yielded a GAPDH gene knockdown with GAPDH (carrier-free transfection) of 65%. Also, in data set [1], the midpoint of thermal melting (Tm) is 80.1 °C, the “Δ Tm” value was −1.1 °C and the “drop in Tm” value is ~1 °C.
“bl(dT5): GAPDH siRNA, sense SEQ ID NO: 3 with dT5, blunt ended antisense SEQ ID NO: 11 without overhang (sense CCGAGCCACAUCGCUCAGATTTTT; antisense UCUGAGCGAUGUGGCUCGG; sense: sugars from the 5' end r19 d5, backbone not given here; antisense: RNA, backbone not given here)”: the GAPDH gene knockdown in the data set with GAPDH (carrier-free transfection) was found to be 60%. This substance gave a decrease in activity in the data set with GAPDH (3′-dT2 of antisense strand removed, versus dT5) of 20%. Besides, in data set [1], the Tm stood at 79.1 °C and the “Δ Tm” value was −2.1 °C.
“miR-34a: Natural miR-34a duplex, sense SEQ ID NO: 20, antisense SEQ ID NO: 21 (sense CAAUCAGCAAGUAUACUGCCCU; antisense UGGCAGUGUCUUAGCUGGUUGU; unmodified RNA) [reference compound]”: the Ctnnb1 expression entry in the data set on Ctnnb1 (β-Catenin) (transfected with MaTra (FIG. 12)) is on record as “induced over expression of Ctnnb1”; in the data set on Ctnnb1 (β-Catenin) (without transfection reagent MaTra (FIG. 12)), “did not show any effect on the expression levels of Ctnnb1”.
For the substance “dC5: GAPDH siRNA, sense SEQ ID NO: 8 with dC5 3′-overhang, antisense SEQ ID NO: 2 with dT2 (sense CCGAGCCACAUCGCUCAGACCCCC; antisense UCUGAGCGAUGUGGCUCGGTT; sense: sugars from the 5' end r19 d5, backbone not given here; antisense: sugars from the 5' end r19 d2, backbone not given here)”, in data set [1], the Tm was found to be 80.9 °C and the “Δ Tm” value was −0.3 °C.
With “dG5: GAPDH siRNA, sense SEQ ID NO: 7 with dG5 3′-overhang, antisense SEQ ID NO: 2 with dT2 (sense CCGAGCCACAUCGCUCAGAGGGGG; antisense UCUGAGCGAUGUGGCUCGGTT; sense: sugars from the 5' end r19 d5, backbone not given here; antisense: sugars from the 5' end r19 d2, backbone not given here)”, in data set [1], the melting temperature (Tm) turned out to be 79.2 °C, the “Δ Tm” value was −2.0 °C and the “drop in Tm” value was ~2 °C.
Consider “as(dT5): GAPDH siRNA, sense SEQ ID NO: 1 with dT2, antisense SEQ ID NO: 5 with dT5 3′-overhang (sense CCGAGCCACAUCGCUCAGATT; antisense UCUGAGCGAUGUGGCUCGGTTTTT; sense: sugars from the 5' end r19 d2, backbone not given here; antisense: sugars from the 5' end r19 d5, backbone not given here)”, for which, in the data set on GAPDH (carrier-free transfection), the GAPDH gene knockdown is on record as 20%. In addition, in data set [1], the Tm was 79.5 °C and the “Δ Tm” value was −1.7 °C.
